Experimental findings from patent US10059713B2 (Takeda Pharmaceutical Company Limited, priority 2014, dated 2018) are described below.

As a reminder, the EC50 is the concentration needed to bring the measured effect to its halfway point.

Chain of human GPR43 (O15552 whole entry): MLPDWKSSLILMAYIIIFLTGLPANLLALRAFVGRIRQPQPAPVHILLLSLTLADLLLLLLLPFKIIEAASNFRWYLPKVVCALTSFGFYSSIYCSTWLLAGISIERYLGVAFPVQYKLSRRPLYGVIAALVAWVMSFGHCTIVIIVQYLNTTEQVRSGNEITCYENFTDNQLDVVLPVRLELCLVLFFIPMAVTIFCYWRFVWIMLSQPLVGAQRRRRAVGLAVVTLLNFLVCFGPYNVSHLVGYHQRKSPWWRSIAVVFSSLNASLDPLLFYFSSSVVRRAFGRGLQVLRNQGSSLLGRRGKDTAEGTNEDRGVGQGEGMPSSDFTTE

In this experiment the target is human GPR43 (Homo sapiens (Human), UniProt O15552). Put plainly: Ca-Flux functional assay: determination of agonist/positive allosteric modulator (PAM) activity. It counts as cell-based. The conditions noted are these: CHO-K1 Gα16 cells stably expressing human GPR43; compound added with EC20 sodium acetate; intracellular Ca2+ by FLIPR; does not distinguish agonist from PAM. The procedure:
Ca-Flux Functional Assay: Determination of Agonist/Positive Allosteric Modulator (PAM) Activity
GPR43 agonist/PAM activity was determined by measuring changes in intracellular calcium levels using a Ca^2+ sensitive fluorescent dye. The changes in fluorescent signal were monitored by FLIPR (manufactured by Molecular Devices). GPR43 mediated increases in intracellular Ca^2+ concentration were readily detected upon activation with sodium acetate. Prior to the assay (24 hours), CHO-K1 Gα16 cells stably expressing human GPR43 were-seeded in cell culture medium in black, clear-bottom 384-well plates (Corning Inc) and grown overnight at 37° C., 5% CO2. On the day of the assay, cell culture media was removed and cells were loaded with Calcium 5 Dye (Molecular Devices) diluted in HBSS containing 25 mM HEPES, 2.5 mM Probenecid, 0.1% BSA for 1 hour at 37° C., 5% CO2. 10 point half log concentration response curves of sodium acetate from 10 mM were conducted prior to the testing of compounds to calculate the sodium acetate concentration that produces 20% of the maximal response (EC20). Test compounds (at 10 point half log concentration response curves from 10 μM) were added in the presence of sodium acetate to achieve a final concentration that produces approximately 20% maximal response as calculated from the previous experiment. The changes in fluorescent signal were monitored by FLIPR upon addition of the compound/EC20 sodium acetate mix. The EC50 values were determined from ten point concentration response curves. Curves were generated using the average of two wells for each data point.
The above assay detects both GPR43 receptor agonists and positive allosteric modulators of the GPR43 receptor, without distinguishing between the two. Activity in either regard is useful in the treatment of conditions associated with GPR43 receptor activity.
The compound `Nc1[nH]c2c(N3CCC(F)(F)C3)ncnc2c1S(=O)(=O)c1ccccc1` [Example 29, 7-(benzenesulfonyl)-4-(3,3-difluoropyrrolidin-1-yl)-5H-pyrrolo[3,2-d]pyrimidin-6-amine] displayed an EC50 of 399 nM.

Turning to `Nc1[nH]c2c(N3CCC3)ncnc2c1S(=O)(=O)c1ccccc1` [Example 30, 4-(azetidin-1-yl)-7-(benzenesulfonyl)-5H-pyrrolo[3,2-d]pyrimidin-6-amine], it took 9530 nM to reach a half-maximal effect (EC50). `Nc1[nH]c2c(N3CCCC3)ncnc2c1S(=O)(=O)c1ccccc1` [Example 31, 7-(benzenesulfonyl)-4-(pyrrolidin-1-yl)-5H-pyrrolo[3,2-d]pyrimidin-6-amine]: the EC50 worked out at 720 nM.

Consider `Nc1[nH]c2c(C3CCCCC3)cncc2c1S(=O)(=O)c1ccccc1` [Example 32, 3-(benzenesulfonyl)-7-cyclohexyl-1H-pyrrolo[3,2-c]pyridin-2-amine], for which the EC50 turned out to be 37 nM.

`Nc1[nH]c2c(C3=CCCCC3)ncnc2c1S(=O)(=O)c1ccc(OC(F)F)cc1` [Example 33, 4-(cyclohex-1-en-1-yl)-7-{[4-(difluoromethoxy)benzene]sulfonyl}-5H-pyrrolo[3,2-d]pyrimidin-6-amine] had an EC50 of 52 nM. Compound `Nc1[nH]c2c(N3CCCC(F)(F)C3)ncnc2c1S(=O)(=O)c1ccccc1` [Example 34, 7-(benzenesulfonyl)-4-(3,3-difluoropiperidin-1-yl)-5H-pyrrolo[3,2-d]pyrimidin-6-amine] yielded an EC50 of 89 nM. For `CNc1[nH]c2c(C3CCCCC3)ncnc2c1S(=O)(=O)c1ccccc1` [Example 35, 7-(benzenesulfonyl)-4-cyclohexyl-N-methyl-5H-pyrrolo[3,2-d]pyrimidin-6-amine], the EC50 was found to be 7520 nM.

In turn, `Nc1[nH]c2c(C3CCCCC3)ncnc2c1S(=O)(=O)c1ccc(OC(F)F)cc1` [Example 36, 4-cyclohexyl-7-{[4-(difluoromethoxy)benzene]sulfonyl}-5H-pyrrolo[3,2-d]pyrimidin-6-amine] showed a 50% effective concentration (EC50) of 87 nM. `Nc1[nH]c2c(C3=CCCCC3)ncnc2c1S(=O)(=O)c1cccc(F)c1` [Example 37, 4-(cyclohex-1-en-1-yl)-7-[(3-fluorobenzene)sulfonyl]-5H-pyrrolo[3,2-d]pyrimidin-6-amine]: the EC50 was determined as 80 nM. The compound `Nc1[nH]c2c(C3=CCCCC3)ncnc2c1S(=O)(=O)c1ccccc1F` [Example 38, 4-(cyclohex-1-en-t-yl)-7-[(2-fluorobenzene)sulfonyl]-5H-pyrrolo[3,2-d]pyrimidin-6-amine] had an EC50 of 16 nM. For the compound `Nc1[nH]c2c(C3CCCCC3)ncnc2c1S(=O)(=O)c1cccc(F)c1` [Example 39, 4-cyclohexyl-7-[(3-fluorobenzene)sulfonyl]-5H-pyrrolo[3,2-d]pyrimidin-6-amine], the EC50 was found to be 80 nM. The same measure for `Cc1nc(C2CCCCC2)c2[nH]c(N)c(S(=O)(=O)c3ccccc3)c2n1` [Example 40, 7-(benzenesulfonyl)-4-cyclohexyl-2-methyl-5H-pyrrolo[3,2-d]pyrimidin-6-amine]: 55 nM. In the case of `CCc1nc(C2=CCCCC2)c2[nH]c(N)c(S(=O)(=O)c3ccccc3)c2n1` [Example 41, 7-(benzenesulfonyl)-4-(cyclohex-1-en-1-yl)-2-ethyl-5H-pyrrolo[3,2-d]pyrimidin-6-amine] it was 37 nM; in that of `Cc1ccc(S(=O)(=O)c2c(N)[nH]c3c(C4=CCCCC4)ncnc23)cc1` [Example 42, 4-(cyclohex-1-en-1-yl)-7-[(4-methylbenzene)sulfonyl]-5H-pyrrolo[3,2-d]pyrimidin-6-amine], 32 nM; in that of `COc1ccc(S(=O)(=O)c2c(N)[nH]c3c(C4=CCCCC4)ncnc23)cn1` [Example 43, 4-(cyclohex-1-en-1-yl)-7-(6-methoxypyridine-3-sulfonyl)-5H-pyrrolo[3,2-d]pyrimidin-6-amine], 78 nM. With `COc1ccc(S(=O)(=O)c2c(N)[nH]c3c(C4CCCCC4)ncnc23)cn1` [Example 44, 4-cyclohexyl-7-(6-methoxypyridine-3-sulfonyl)-5H-pyrrolo[3,2-d]pyrimidin-6-amine], the EC50 worked out at 173 nM.

As to `Cc1ccc(S(=O)(=O)c2c(N)[nH]c3c(C4CCCCC4)ncnc23)cc1` [Example 45, 4-cyclohexyl-7-[(4-methylbenzene)sulfonyl]-5H-pyrrolo[3,2-d]pyrimidin-6-amine], the EC50 stood at 84 nM.

For the compound `Nc1[nH]c2c(N3CCC(F)CC3)ncnc2c1S(=O)(=O)c1ccccc1` [Example 46, 7-(benzenesulfonyl)-4-(4-fluoropiperidin-1-yl)-5H-pyrrolo[3,2-d]pyrimidin-6-amine], the response was half-maximal at 153 nM (EC50). In the case of `CC1(C)CCN(c2ncnc3c(S(=O)(=O)c4ccccc4)c(N)[nH]c23)C1` [Example 47] it was 358 nM. Consider `Nc1[nH]c2c(N3CCCCCC3)ncnc2c1S(=O)(=O)c1ccccc1` [Example 48, 4-(azepan-1-yl)-7-(benzenesulfonyl)-5H-pyrrolo[3,2-d]pyrimidin-6-amine], for which the response was half-maximal at 209 nM (EC50). In turn, `Nc1[nH]c2c(C3=CCCCC3)ncnc2c1S(=O)(=O)c1ccc(F)c(F)c1` [Example 49, 4-(cyclohex-1-en-1-yl)-7-[(3,4-difluorobenzene)sulfonyl]-5H-pyrrolo[3,2-d]pyrimidin-6-amine] showed an EC50 of 113 nM. For `Nc1[nH]c2c(C3=CCCCC3)ncnc2c1S(=O)(=O)C1CCCCC1` [Example 50, 4-(cyclohex-1-en-1-yl)-7-(cyclohexanesulfonyl)-5H-pyrrolo[3,2-d]pyrimidin-6-amine], the midpoint of the response, the EC50, lay at 80 nM.

The compound `Nc1[nH]c2c(C3CCCCC3)ncnc2c1S(=O)(=O)C1CCCCC1` [Example 51, 7-(cyclohexanesulfonyl)-4-cyclohexyl-5H-pyrrolo[3,2-d]pyrimidin-6-amine] displayed an EC50 of 162 nM. `CC1CN(c2ncnc3c(S(=O)(=O)c4ccccc4)c(N)[nH]c23)CCO1` (centres unmarked) [Example 52, 7-(benzenesulfonyl)-4-(2-methylmorpholin-4-yl)-5H-pyrrolo[3,2-d]pyrimidin-6-amine] came in with an EC50 of 43 nM. Compound `CCc1nc(C2CCCCC2)c2[nH]c(N)c(S(=O)(=O)c3ccccc3)c2n1` [Example 53, 7-(benzenesulfonyl)-4-cyclohexyl-2-ethyl-5H-pyrrolo[3,2-d]pyrimidin-6-amine] returned an EC50 of 58 nM. In the case of `CC1COCCN1c1ncnc2c(S(=O)(=O)c3ccccc3)c(N)[nH]c12` (centres unmarked) [Example 54, 7-(benzenesulfonyl)-4-(3-methylmorpholin-4-yl)-5H-pyrrolo[3,2-d]pyrimidin-6-amine] it was 211 nM. Compound `Nc1[nH]c2c(OCC3CC3)ncnc2c1S(=O)(=O)c1ccccc1` [Example 55, 7-(benzenesulfonyl)-4-(cyclopropylmethoxy)-5H-pyrrolo[3,2-d]pyrimidin-6-amine] gave an EC50 of 131 nM. Take `CC1(C)CCCN1c1ncnc2c(S(=O)(=O)c3ccccc3)c(N)[nH]c12` [Example 56, 7-(benzenesulfonyl)-4-(2,2-dimethylpyrrolidin-1-yl)-5H-pyrrolo[3,2-d]pyrimidin-6-amine]: it took 18 nM to reach a half-maximal effect (EC50). In the case of `Cc1cccc(-c2ncnc3c(S(=O)(=O)c4ccccc4)c(N)[nH]c23)c1` [Example 57, 7-(benzenesulfonyl)-4-(3-methylphenyl)-5H-pyrrolo[3,2-d]pyrimidin-6-amine] it was 15 nM. `CC1CCCN(c2ncnc3c(S(=O)(=O)c4ccccc4)c(N)[nH]c23)C1` (centres unmarked) [Example 58, 7-(benzenesulfonyl)-4-(3-methylpiperidin-1-yl)-5H-pyrrolo[3,2-d]pyrimidin-6-amine] displayed a half-maximal effective concentration (EC50) of 17 nM. In the case of `CC1CCN(c2ncnc3c(S(=O)(=O)c4ccccc4)c(N)[nH]c23)CC1` [Example 59, 7-(benzenesulfonyl)-4-(4-methylpiperidin-1-yl)-5H-pyrrolo[3,2-d]pyrimidin-6-amine], the EC50 stood at 57 nM. In turn, `Nc1[nH]c2c(C3CCCCC3)ncnc2c1S(=O)(=O)c1ccc(F)c(F)c1` [Example 60, 4-cyclohexyl-7-(3,4-difluorobenzenesulfonyl)-5H-pyrrolo[3,2-d]pyrimidin-6-amine] came in with an EC50 of 182 nM. The compound `Nc1[nH]c2c(C3=CCCCC3)ncnc2c1S(=O)(=O)C1CCOCC1` [Example 61, 4-(cyclohex-1-en-1-yl)-7-(oxane-4-sulfonyl)-5H-pyrrolo[3,2-d]pyrimidin-6-amine] returned an EC50 of 3470 nM. In the case of `CCN(Cc1ccco1)c1ncnc2c(S(=O)(=O)c3ccccc3)c(N)[nH]c12` [Example 62, 7-(benzenesulfonyl)-4-N-ethyl-4-N-(furan-2-ylmethyl)-5H-pyrrolo[3,2-d]pyrimidine-4,6-diamine] it was 91 nM. For the compound `Nc1[nH]c2c(N(CC3CC3)CC3CCCO3)ncnc2c1S(=O)(=O)c1ccccc1` (centres unmarked) [Example 63, 7-(benzenesulfonyl)-4-N-(cyclopropylmethyl)-4-N-(oxolan-2-ylmethyl)-5H-pyrrolo[3,2-d]pyrimidine-4,6-diamine], the EC50 came to 125 nM.
